Measured values published in patent US8791132B2, “Compounds and methods for treatment of hypertension” (Medivation Technologies, Inc., priority 2011, dated 2014).
pKi: −log10 of the molar value.

Tests used:
[1] = target: T1, rat adrenergic α1B receptor (Rattus norvegicus, UniProt P15823); assay: Radioligand binding, adrenergic α1B ([3H]Prazosin); conditions: for Percentage inhibition of ligand binding, Adrenergic α1B: 0.1 µM
T1 construct: rat adrenergic α1B receptor obtained from Wistar Rat liver; from tissue; host or cells: Wistar rat liver
T1 sequence (P15823 1-515): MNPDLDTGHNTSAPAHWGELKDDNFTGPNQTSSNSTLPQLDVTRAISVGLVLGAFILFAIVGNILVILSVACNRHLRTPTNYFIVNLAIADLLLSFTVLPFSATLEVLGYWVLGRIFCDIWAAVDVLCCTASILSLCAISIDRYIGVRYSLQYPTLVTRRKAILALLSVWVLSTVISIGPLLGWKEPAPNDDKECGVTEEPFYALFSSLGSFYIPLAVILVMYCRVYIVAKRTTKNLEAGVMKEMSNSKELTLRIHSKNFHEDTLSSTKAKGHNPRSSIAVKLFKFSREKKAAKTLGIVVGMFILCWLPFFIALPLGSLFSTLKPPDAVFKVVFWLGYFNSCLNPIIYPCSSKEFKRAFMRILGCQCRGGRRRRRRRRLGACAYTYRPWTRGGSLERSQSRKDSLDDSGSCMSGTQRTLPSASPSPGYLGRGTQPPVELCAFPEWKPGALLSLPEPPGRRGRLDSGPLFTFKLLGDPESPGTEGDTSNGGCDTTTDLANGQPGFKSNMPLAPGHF
Summary of the method: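 Specific binding, taken as total minus that remaining with 10 μM phentolamine, is measured after filtration and counting. Rat liver receptor preparation and 0.25 nM [3H]prazosin are incubated with compound in 50 mM Tris-HCl (pH 7.4, 0.5 mM EDTA) at 25° C for 60 min. Activity is reported as percent inhibition.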

[2] = target: T2, human recombinant adrenergic α2A receptor (Homo sapiens, UniProt P08913); assay: Radioligand binding, adrenergic α2A ([3H]MK-912); conditions: 0.1 μM compound; for Percentage inhibition of ligand binding, Adrenergic α2A: 0.1 µM; for inhibition at 0.1 µM: read-out: Percentage inhibition of ligand binding, Adrenergic α2A
T2 construct: expressed in transfected cells; host or cells: insect Sf9 cells
T2 sequence (P08913 1-465): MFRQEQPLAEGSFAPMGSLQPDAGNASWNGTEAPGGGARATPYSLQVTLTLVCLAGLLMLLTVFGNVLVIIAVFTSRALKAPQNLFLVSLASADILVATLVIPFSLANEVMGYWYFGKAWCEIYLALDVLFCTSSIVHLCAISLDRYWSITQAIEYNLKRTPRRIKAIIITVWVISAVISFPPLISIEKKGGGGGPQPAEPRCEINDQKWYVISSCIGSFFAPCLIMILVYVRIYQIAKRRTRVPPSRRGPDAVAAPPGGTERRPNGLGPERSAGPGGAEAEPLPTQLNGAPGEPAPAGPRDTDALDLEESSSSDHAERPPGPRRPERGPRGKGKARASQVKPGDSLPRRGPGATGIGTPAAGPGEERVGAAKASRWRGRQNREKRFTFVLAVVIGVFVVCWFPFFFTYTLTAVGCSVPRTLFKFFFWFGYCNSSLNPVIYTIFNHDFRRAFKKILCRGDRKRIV
Summary of the method: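 Displacement of 1 nM [3H]MK-912 from receptor produced in insect Sf9 cells was measured after 60 min at 25 °C. Readout: percent inhibition of specific binding.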

[3] = target: T3, human recombinant adrenergic α2B receptor (Homo sapiens, UniProt P18089); assay: Radioligand binding, adrenergic α2B ([3H]Rauwolscine); conditions: for Percentage inhibition of ligand binding, Adrenergic α2B / inhibition at 0.03 µM: 0.03 μM compound; for Percentage inhibition of ligand binding, Adrenergic α2B: 0.03 µM
T3 construct: expressed in transfected cells; host or cells: CHO-K1
T3 sequence (P18089 1-450): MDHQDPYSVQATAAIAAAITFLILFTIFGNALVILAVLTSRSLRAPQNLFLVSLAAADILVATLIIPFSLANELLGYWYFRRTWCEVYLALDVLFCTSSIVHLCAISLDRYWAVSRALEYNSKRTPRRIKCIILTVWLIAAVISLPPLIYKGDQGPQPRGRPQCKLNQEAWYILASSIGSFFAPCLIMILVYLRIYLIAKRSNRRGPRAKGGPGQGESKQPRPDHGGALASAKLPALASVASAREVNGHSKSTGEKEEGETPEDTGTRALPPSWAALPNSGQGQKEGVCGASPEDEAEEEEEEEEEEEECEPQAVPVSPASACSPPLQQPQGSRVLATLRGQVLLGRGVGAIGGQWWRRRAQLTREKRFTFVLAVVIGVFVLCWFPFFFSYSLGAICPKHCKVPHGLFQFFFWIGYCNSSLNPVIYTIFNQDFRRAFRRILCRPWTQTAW
Summary of the method: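 Receptor expressed in CHO-K1 cells, assayed in 50 mM Tris-HCl pH 7.4 with 12.5 mM MgCl2, 1 mM EDTA and 0.2% BSA. Compounds were incubated with 2.5 nM [3H]Rauwolscine for 60 min at 25° C; 10 μM Prazosin defined non-specific binding. Filter counting gave percent inhibition of specific binding.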

[4] = read-out: Percentage inhibition of ligand binding, Adrenergic α2B

SMILES | Percentage inhibition of ligand binding, Adrenergic α1B ([1]; 0.1 μM compound) | Percentage inhibition of ligand binding, Adrenergic α2A [2] | Percentage inhibition of ligand binding, Adrenergic α2B [3] | inhibition at 0.03 µM [3, 4] | inhibition at 0.1 µM [2] | inhibition at 0.03 µM ([1]; 0.03 μM compound, read-out: Percentage inhibition of ligand binding, Adrenergic α1B) | inhibition at 0.1 µM ([1]; 0.1 μM compound, read-out: Percentage inhibition of ligand binding, Adrenergic α1B) | inhibition at 0.1 µM ([3]; 0.1 μM compound, read-out: Percentage inhibition of ligand binding, Adrenergic α2B) | pKi ([3]; read-out: Ki α2B)
CC(=O)NC(Cn1c2c(c3cc(C)ccc31)CN(C)CC2)c1ccncc1 (single isomer, unassigned) [II-1b, N-(2-(1,2,3,4-tetrahydro-2,8-dimethylpyrido[4,3-b]indol-5-yl)-1-(pyridin-4-yl)ethyl)acetamide] | −7% | 1% | 32% |  |  |  |  |  | 
Cc1ccc2c(c1)c1c(n2CC(C)(c2cnccn2)N(C)C)CCN2CCCC12 (single isomer, unassigned) [II-6a, dimethyl-[1-methyl-2-(9-methyl-1,2,3,4,5,10c-hexahydro-3a,6-diaza-cyclopenta[c]fluoren-6-yl)-1-pyrazin-2-yl-ethyl]-amine] | 66% | 45% |  | 85% |  |  |  |  | 
Cc1ccc2c(c1)c1c(n2CC(C)(c2cnccn2)N(C)C)CCN2CCCC12 (single isomer, unassigned) [II-6b, dimethyl-[1-methyl-2-(9-methyl-1,2,3,4,5,10c-hexahydro-3a,6-diaza-cyclopenta[c]fluoren-6-yl)-1-pyrazin-2-yl-ethyl]-amine] | 91% | 81% | 102% |  |  |  |  |  | 
Cc1ccc2c(c1)c1c(n2CC(N)c2ccc(F)cc2)CCN(C)C1 (single isomer, unassigned) [II-11a, 2-(2,8-dimethyl-3,4-dihydro-1H-pyrido[4,3-b]indol-5(2H)-yl)-1-(4-fluorophenyl)ethanamine] | 9% | 22% | 53% |  |  |  |  |  | 
Cc1ccc2c(c1)c1c(n2CC(N)c2ccc(F)cc2)CCN(C)C1 (single isomer, unassigned) [II-11b, 2-(2,8-dimethyl-3,4-dihydro-1H-pyrido[4,3-b]indol-5(2H)-yl)-1-(4-fluorophenyl)ethanamine] | 76% | 43% | 89% |  |  |  |  |  | 
CNC(Cn1c2c(c3cc(C)ccc31)CN(C)CC2)c1ccc(F)cc1 (single isomer, unassigned) [II-12a, 2-(2,8-dimethyl-3,4-dihydro-1H-pyrido[4,3-b]indol-5(2H)-yl)-1-(4-fluorophenyl)-N-methyl ethanamine] | 26% | 25% | 89% |  |  |  |  |  | 
CNC(Cn1c2c(c3cc(C)ccc31)CN(C)CC2)c1ccc(F)cc1 (single isomer, unassigned) [II-12b, 2-(2,8-dimethyl-3,4-dihydro-1H-pyrido[4,3-b]indol-5(2H)-yl)-1-(4-fluorophenyl)-N-methyl ethanamine] | 11% | 15% | 65% |  |  |  |  |  | 
Cc1ccc2c(c1)c1c(n2CC(c2ccc(F)cc2)N(C)C)CCN(C)C1 (single isomer, unassigned) [II-14a, 2-(2,8-dimethyl-3,4-dihydro-1H-pyrido[4,3-b]indol-5(2H)-yl)-1-(4-fluorophenyl)-N,N-dimethylethanamine] | 30% |  | 88% |  | 34% |  |  |  | 
Cc1ccc2c(c1)c1c(n2CC(c2ccc(F)cc2)N(C)C)CCN(C)C1 (single isomer, unassigned) [II-14b, 2-(2,8-dimethyl-3,4-dihydro-1H-pyrido[4,3-b]indol-5(2H)-yl)-1-(4-fluorophenyl)-N,N-dimethylethanamine] | 8% | 17% | 33% |  |  |  |  |  | 
CC(=O)OC(C)(Cn1c2c(c3cc(C)ccc31)CN(C)CC2)c1cccnc1 (single isomer, unassigned) [II-15a, acetic acid 2-(2,8-dimethyl-1,2,3,4-tetrahydro-pyrido[4,3-b]indol-5-yl)-1-methyl-1-pyridin-3-yl-ethyl ester] | 61% | 7% |  | 47% |  |  |  |  | 
CC(=O)OC(C)(Cn1c2c(c3cc(C)ccc31)CN(C)CC2)c1cccnc1 (single isomer, unassigned) [II-15b, acetic acid 2-(2,8-dimethyl-1,2,3,4-tetrahydro-pyrido[4,3-b]indol-5-yl)-1-methyl-1-pyridin-3-yl-ethyl ester] | 5% | 18% | 40% |  |  |  |  |  | 
Cc1ccc2c(c1)c1c(n2CC(C)(OC(=O)C(C)(C)C)c2cccnc2)CCN(C)C1 (single isomer, unassigned) [II-16b, 2,2-dimethyl-propionic acid 2-(2,8-dimethyl-1,2,3,4-tetrahydro-pyrido[4,3-b]indol-5-yl)-1-methyl-1-pyridin-3-yl-ethyl ester] | 46% |  | 73% | 65% | 32% | 16% | 32% | 88% | 8.25
Cc1ccc2c(c1)c1c(n2CC(O)c2ccccc2F)CN(C)CC1 (single isomer, unassigned) [II-49a, 2-(2,6-dimethyl-3,4-dihydro-1H-pyrido[3,4-b]indol-9(2H)-yl)-1-(2-fluorophenyl)ethanol] | 47% |  |  | 43% | 34% |  |  |  | 
Cc1ccc2c(c1)c1c(n2CC(O)c2ccccc2F)CN(C)CC1 (single isomer, unassigned) [II-49b, 2-(2,6-dimethyl-3,4-dihydro-1H-pyrido[3,4-b]indol-9(2H)-yl)-1-(2-fluorophenyl)ethanol] | 69% | 18% | 50% |  |  |  |  |  | 
OCCN1CCc2c(c3cc(Cl)ccc3n2CC(O)c2cccnc2)C1 (single isomer, unassigned) [II-94b] | 7% | −5% | 24% |  |  |  |  |  | 
Cc1ccc2c(c1)c1c(n2C(C)C(O)c2ccccc2)CCN(C)C1 (single isomer, unassigned) [II-95a, 2-(2,8-dimethyl-1,2,3,4-tetrahydro-pyrido[4,3-b]indol-5-yl)1-phenyl-propan-1-ol] | 32% | 16% | 53% |  |  |  |  |  | 
